This note sets out measurements from US7238716B2, “Alkanoic acid derivatives process for their production and use thereof” (Takeda Pharmaceuticals Company Limited, priority 2000, dated 2007).

One experiment has as its system KKAY mice. The experiment in a line: Hypoglycemic and hypolipidemic actions in mice (Test Example 1). As to conditions: Mus musculus, po, 96 h, 0.005% in powdery diet, four days. The experiment is classed as in vivo. Put shortly: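 Compounds given in powdered diet at 0.01% or 0.005% ad libitum for four days to KKAY mice (11–12 weeks old, 5 per group). Plasma glucose and triglyceride measured enzymatically from orbital blood; values are percent reduction relative to untreated group taken as 100%.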

The target of the next experiment is T1, PPARγ-RXRα heterodimer (Homo sapiens, UniProt P37231).
T1 construct: expressed in transfected cells; host or cells: CHO-K1
T1 sequence (P37231 1-477 isoform P37231-2): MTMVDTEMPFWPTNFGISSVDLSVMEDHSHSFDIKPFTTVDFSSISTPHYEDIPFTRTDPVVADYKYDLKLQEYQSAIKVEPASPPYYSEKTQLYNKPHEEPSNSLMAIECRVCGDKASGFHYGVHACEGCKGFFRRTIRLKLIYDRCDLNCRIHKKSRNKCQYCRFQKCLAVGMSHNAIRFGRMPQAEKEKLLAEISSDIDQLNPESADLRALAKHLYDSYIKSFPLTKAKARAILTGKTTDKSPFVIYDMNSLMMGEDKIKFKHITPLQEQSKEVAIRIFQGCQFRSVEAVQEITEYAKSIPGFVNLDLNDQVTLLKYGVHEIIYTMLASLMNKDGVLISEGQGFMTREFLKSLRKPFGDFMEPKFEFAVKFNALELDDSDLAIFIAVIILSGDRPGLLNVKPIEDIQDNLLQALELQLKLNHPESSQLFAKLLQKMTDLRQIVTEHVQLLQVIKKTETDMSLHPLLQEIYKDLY
T1 sequence (P19793 1-462 partner): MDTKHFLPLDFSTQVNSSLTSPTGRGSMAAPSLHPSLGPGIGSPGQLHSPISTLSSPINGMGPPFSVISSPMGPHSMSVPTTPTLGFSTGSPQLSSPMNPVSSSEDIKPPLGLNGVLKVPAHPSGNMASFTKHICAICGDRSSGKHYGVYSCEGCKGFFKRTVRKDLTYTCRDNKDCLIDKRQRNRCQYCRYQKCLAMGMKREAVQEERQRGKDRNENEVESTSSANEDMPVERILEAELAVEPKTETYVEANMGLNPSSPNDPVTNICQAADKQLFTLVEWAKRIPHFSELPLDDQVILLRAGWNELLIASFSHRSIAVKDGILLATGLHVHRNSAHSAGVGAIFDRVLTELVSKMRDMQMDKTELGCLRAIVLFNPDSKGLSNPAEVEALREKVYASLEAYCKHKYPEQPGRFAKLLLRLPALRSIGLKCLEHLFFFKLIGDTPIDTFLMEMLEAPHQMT
Briefly: PPARγ-RXRα heterodimer ligand activity, luciferase reporter in PPARγ:RXRα:4ERPP/CHO-K1 cells (Test Example 3). The experiment is classed as cell-based. As to conditions: concentration for 50% of the maximum fold induction of luciferase activity; 48 hours, CHO-K1 cells. The gist of the method: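 CHO-K1 cells stably carrying hPPARγ/RXR expression plasmid and 4ERPP-TK luciferase reporter, treated 48 h at 37 °C in HAM F12 with 0.1% fatty-acid-free BSA. Luciferase fold induction taken over untreated cells; EC50 at 50% of maximal fold induction.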

The mark [1] stands for this setting: percent reduction of plasma glucose level vs non-administration group, read-out: hypoglycemic action (%).
Where [2] appears, read: percent reduction of plasma triglyceride level vs non-administration group, read-out: hypolipidemic action (%).

Like-named read-outs stand apart in the source and are kept apart here.

A word on the EC50: it is the midpoint of the concentration-response curve. High values mean weaker potency, low ones greater potency. On to `O=C(O)Cc1ccccc1OCc1ccc(OCc2csc(-c3ccccc3)n2)cc1` [Example 51, 2-[2-[4-[(2-phenyl-4-thiazolyl)methoxy]benzyloxy]phenyl]acetic acid], for which the inhibition in vivo at 0.005 % in the experiment on KKAY mice (setting [1]) came to 55%; with KKAY mice (setting [2]), 79%. Also, a half-maximal response at PPARγ-RXRα heterodimer (EC50) required 1.2 µM.
With `Cc1sc(-c2ccccc2)nc1COc1ccc(COc2ccccc2CC(=O)O)cc1` [Example 52, 2-[2-[4-[(5-methyl-2-phenyl-4-thiazolyl)methoxy]benzyloxy]phenyl]acetic acid], the inhibition in vivo at 0.005 % in the experiment with KKAY mice (setting [1]) came to 56%; in the experiment with KKAY mice (setting [2]) it was 61%. Also, at PPARγ-RXRα heterodimer, it took 0.23 µM to reach a half-maximal effect (EC50).
For the compound `Cc1oc(-c2ccccc2)nc1CCOc1ccc(COc2ccccc2CC(=O)O)cc1` [Example 58, 2-[2-[4-[2-(5-methyl-2-phenyl-4-oxazolyl)ethoxy]benzyloxy]phenyl]acetic acid], the inhibition in vivo at 0.005 % in the experiment on KKAY mice (setting [1]) came out at 57%; in the experiment with KKAY mice (setting [2]) it was 75%. The same compound came in with an EC50 on PPARγ-RXRα heterodimer of 0.12 µM.
The like results for `Cc1oc(-c2ccccc2)nc1COc1cc(COc2cccc(CC(=O)O)c2)ccn1` [Example 62, 2-[3-[2-[(5-methyl-2-phenyl-4-oxazolyl)methoxy]-4-pyridylmethoxy]phenyl]acetic acid] were, in that order, 47%, 44% and 0.02 µM.
`Cc1oc(-c2ccccc2)nc1COc1cc(COc2ccccc2CC(=O)O)on1` [Example 79, 2-[2-[3-(5-methyl-2-phenyl-4-oxazolylmethoxy)-5-isoxazoly]methoxylphenyl]acetic acid]: the inhibition in vivo at 0.005 % was 54% in the experiment with KKAY mice (setting [1]) and 96% in the experiment with KKAY mice (setting [2]). The compound also came in with an EC50 on PPARγ-RXRα heterodimer of 0.0092 µM.
Regarding `Cc1oc(-c2ccccc2)nc1COc1ccc(COc2ncccc2CC(=O)O)cn1` [Example 88, 2-[2-[[6-[(5-methyl-2-phenyl-4-oxazolyl)methoxy]-3-pyridyl]methoxy]-3-pyridyl]acetic acid], the results for the inhibition in vivo at 0.005 % with KKAY mice (setting [1]) and with KKAY mice (setting [2]) were 47% and 90%, respectively. On PPARγ-RXRα heterodimer, this compound gave an EC50 of 0.0071 µM.
`COc1cc(COc2ncccc2CC(=O)O)ccc1OCc1nc(-c2ccccc2)oc1C` [Example 91, 2-[2-[3-methoxy-4-[(2-phenyl-5-methyl-4-oxazolyl)methoxy]benzyloxy]-3-pyridyl]acetic acid]: the inhibition in vivo at 0.005 % was found to be 50% in the experiment with KKAY mice (setting [1]) and 67% with KKAY mice (setting [2]). Moreover, the 50% effective concentration (EC50) at PPARγ-RXRα heterodimer is 0.0017 µM.
With `Cc1oc(-c2ccco2)nc1COc1ccc(COc2ncccc2CC(=O)O)cc1` [Example 92, 2-[2-[4-[[2-(2-furyl)-5-methyl-4-oxazolyl]methoxy]benzyloxy]-3-pyridyl]acetic acid], the values for the inhibition in vivo at 0.005 % in the experiment on KKAY mice (setting [1]) and in the experiment with KKAY mice (setting [2]) were 58% and 83%, respectively. Besides, on PPARγ-RXRα heterodimer, the EC50 came out at 0.37 µM.
With `Cc1sc(-c2ccccc2)nc1COc1ccc(COc2ncccc2CC(=O)O)cc1` [Example 93, 2-[2-[4-[(5-methyl-2-phenyl-4-thiazolyl)methoxy]benzyloxy]-3-pyridyl]acetic acid], the results for the inhibition in vivo at 0.005 % in the experiment on KKAY mice (setting [1]) and in the experiment with KKAY mice (setting [2]) were 45% and 53%, respectively. At PPARγ-RXRα heterodimer, a half-maximal effect (EC50) was put at 0.39 µM.
Consider `Cc1oc(-c2ccccc2)nc1CCc1ccc(COc2ccccc2CC(=O)O)cc1` [Example 97, 2-[2-[4-[2-(5-methyl-2-phenyl-4-oxazolyl)ethyl]benzyloxy]phenyl]acetic acid], for which the inhibition in vivo at 0.005 % with KKAY mice (setting [1]) was 34%; in the experiment on KKAY mice (setting [2]) it was 83%. On PPARγ-RXRα heterodimer, this compound came in with an EC50 of 0.026 µM.
For `Cc1oc(-c2ccccc2)nc1CCc1noc(COc2ccccc2CC(=O)O)n1` [Example 107, 2-[2-[[3-[2-(5-methyl-2-phenyl-4-oxazolyl)ethyl]-1,2,4-oxadiazol-5-yl]methoxy]phenyl]acetic acid], the inhibition in vivo at 0.005 % came out at 40% in the experiment on KKAY mice (setting [1]) and 39% in the experiment with KKAY mice (setting [2]). Moreover, the 50% effective concentration (EC50) at PPARγ-RXRα heterodimer was 0.087 µM.
For `Cc1ccc(CC(=O)O)c(OCc2ccc(OCc3nc(-c4ccccc4)oc3C)cc2)n1` [Example 110, 2-[6-methyl-2-[4-[(5-methyl-2-phenyl-4-oxazolyl)methoxy]benzyloxy]-3-pyridyl]acetic acid], the figures for the inhibition in vivo at 0.005 % with KKAY mice (setting [1]) and in the experiment with KKAY mice (setting [2]) were 51% and 74%, respectively. Besides, the EC50 on PPARγ-RXRα heterodimer amounted to 0.042 µM.
As for `Cc1oc(-c2ccccc2)nc1COc1cc(COc2ncccc2CC(=O)O)on1` [Example 129, 2-[2-[[3-[(5-methyl-2-phenyl-4-oxazolyl)methoxy]-5-isoxazolyl]methoxy]-3-pyridyl]acetic acid], the inhibition in vivo at 0.005 % turned out to be 45% in the experiment on KKAY mice (setting [1]) and 93% in the experiment on KKAY mice (setting [2]). Besides, the EC50 on PPARγ-RXRα heterodimer came out at 0.059 µM.
In the same order, the values of `Cc1oc(-c2ccc3ccccc3c2)nc1COc1ccc(COc2ncccc2CC(=O)O)cc1` [Example 130, 2-[2-[4-[5-methyl-2-(2-naphthyl)-4-oxazolylmethoxy]benzyloxy]-3-pyridyl]acetic acid] are 55%, 63% and 0.011 µM.
